Assay results published in US7160923B1, “Polyamine analogues as therapeutic and diagnostic agents” (MediQuest Therapeutics, Inc., priority 1997, dated 2007).

Experiments:
[1] = system: polyamine transporter (PATr); assay: Polyamine transport (PAT) inhibition assay in MDA-MB-231 cells; type: cell-based, human
Experimental: (§1) In a conventional radiometric assay, the cells are incubated under growth conditions with [5,8-^14C]spermine in serum-free medium for varying intervals. Cells are plated at a known density in 24 well plates in standard tissue culture medium and allowed to adhere and grow for 15–96 hours. Due to the low signal of the radiolabel in this assay, 96 or […] well microplates cannot be used in this assay, creating a major bottleneck for throughput. Cell numbers are determined, and the plate is placed in a temperature controlled system at 37° C. Aminoguanidine is added to the medium to a final concentration of 1 mM. […] The assay is initiated by the mixing of the inhibitor and radioligand. The cells are incubated for an interval of about 1–60 minutes depending on cell type. The assay is terminated by removing the medium and cooling the plates to 4° C. The cells are then washed with cold medium three times, dissolved in 0.1% sodium dodecylsulfate, and the radioactivity in solution is determined by scintillation counting.
Therefore, the growth assay and a kinetic transport assay have been used to validate transport inhibition. […]

[2] = system: polyamine transporter (PATr); assay: Radiometric polyamine transport (PAT) assay in A172 cells; type: cell-based
Experimental: as §1, with “In a conventional radiometric assay, the cells are incubated under growth conditions with [5,8-^14C]spermine in serum-free medium for varying intervals.” left out

cultured cells = assay: Fluorescent microscopic analysis of monodansylspermine uptake; type: cell-based
Experimental: Cells were plated in a sterile chambered slide and grown for 15–48 hours to assure adherence of cells to the slide. The medium was removed and replaced with fresh medium containing 1 μM MDS for a 10 minute incubation period at 37° C. The medium was then removed and the cells washed 3 times with phosphate buffered saline. Glycerol (50% v/v) in a volume of […] was added to the chamber, and the slide was removed and covered with a cover slip.
Using a fluorescence microscope with filters set for excitation at 340 nm and emission at 530 nm, the slide was observed under normal light and with fluorescence. Uptake of the dansylated spermine was observed microscopically and recorded on photograph.

cancer cells = details: cited from earlier work
[3] = system: MDA-MB-231 human breast carcinoma cells; assay: Growth assay of MDA-MB-231 cells with and without ODC inhibitor (DFMO), 1 μM spermidine; type: cell-based; details: for R: ratio of the IC50 in the absence of DFMO over the IC50 in the presence of DFMO, MDA growth assay
Text: The ratio, R is the IC50 for […] relative to the IC50 for the polyamine analogue combined with an ODC inhibitor. This value of R, indicates the relative level of “synergism” between the polyamine analogue and ODC inhibitor.

[4] = target: spermidine/spermine acetyltransferase (SSAT) (Homo sapiens, UniProt P21673); assay: Spermidine/spermine acetyltransferase (SSAT) enzyme assay; type: biochemical; details: varying concentrations; 1 mM spermidine, 1 mM 14C-Acetyl CoA, pH 7.8
Chain of spermidine/spermine acetyltransferase (SSAT) (P21673 whole entry, species assumed): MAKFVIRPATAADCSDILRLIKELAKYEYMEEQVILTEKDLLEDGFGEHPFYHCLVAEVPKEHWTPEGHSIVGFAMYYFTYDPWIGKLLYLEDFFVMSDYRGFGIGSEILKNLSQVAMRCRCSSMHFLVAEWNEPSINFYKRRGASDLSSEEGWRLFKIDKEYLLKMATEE
Experimental: A study was conducted to determine whether the compositions of the present invention, designed as PAT inhibitors, had other activities on the PA system. Specifically, the ability of DACS to inhibit an enzyme involved in PA recycling was evaluated. The method used was as described in Casero, R. A. et al., Biochem. J270:615–620 (1990) hereby incorporated by reference in its entirety. This assay measures the incorporation of ^14C-labeled acetyl CoA into spermidine to form acetylspermidine. Varying concentrations of DACS were added to a reaction mixture containing HEPES buffer, pH 7.8, 1 mM spermidine, and 1 mM ^14C-Acetyl CoA. The product is isolated by binding to phosphocellulose filter paper and the extent of reaction is determined by scintillation counting.

[5] = system: T-cell acute lymphoblastic leukemias (ALL), glioblastomas, prostate, and colon cell lines; assay: In vitro test in combination with ODC inhibitors against several human cancer cell lines; type: cell-based
Experimental: DACS was tested in vitro in combination with ODC inhibitors against several human cancer cell lines. These include T-cell acute lymphoblastic leukemias (ALL), glioblastomas, prostate, and colon cell lines.

[6] = system: polyamine transporter (PATr); assay: Polyamine transport (PAT) inhibition assay in MDA-MB-231 cells; type: cell-based, human; remark: listed apart in the source
[7] = system: murine L1210 leukemia cells; details: cited from earlier work
neoplastic vessels = details: one month of treatment, humans with cervical interepithelial neoplasia; cited from earlier work
[8] = MDA-MB-231 cell PATr, read-out: Ki for the PATr
[9] = parallel library products, purity estimated greater than 80%, read-out: Ki μM, Inhibition of the Polyamine Transporter in MDA-MB-231 Cell Line

**Q.** Which Ki [1, 8] does the source give for `CN(C)c1cccc2c(S(=O)(=O)NCCCNCCCCNCCCN)cccc12` [Compound 3, N^1-dansylspermine] here?
**A.** 0.08 µM

**Q.** What about the “displacement of 3H-spermidine in the transport assay” value ([2]; A172 cells) of the same compound?
**A.** competitively displace

**Q.** What about the intracellular localization (cultured cells) of the same compound?
**A.** localize specifically to the nucleoli and the nuclear membrane

**Q.** What about the “uptake of the fluorescent probe into cells” value (cultured cells; 1 μM, 10 minute incubation at 37° C.) of the same compound?
**A.** took up the labeled material

**Q.** With `NCCCNCCCCNCCCNS(=O)(=O)c1ccc2ccccc2c1` as the compound, how does the Ki [1, 9] read?
**A.** 0.15 µM

**Q.** Which Ki [1, 9] does the source give for `NCCCNCCCCNCCCNS(=O)(=O)c1cccc2ccccc12` here?
**A.** 0.19 µM

**Q.** For `CN(C)CCCN1c2ccccc2CCc2ccccc21` [Compound 165, imipramine, reference compound], which “inhibition of the PAT assay” value ([1]; MDA cell line) is on record?
**A.** inhibited the PAT assay

**Q.** And the Ki ([1]; MDA cells, read-out: Ki, non-competitive inhibitor of PAT)?
**A.** 0.5 µM

**Q.** And the “inhibition of polyamine transport” value ([1]; cell line not stated at the place (Example XXII: A172 and MDA))?
**A.** inhibited polyamine transport

**Q.** And the “inhibition of the PAT assay” value ([2]; A172 cell line)?
**A.** inhibited the PAT assay

**Q.** And the Ki ([2]; A172 cells, read-out: Ki, non-competitive inhibitor of PAT)?
**A.** 41 nM

**Q.** Which Ki [1, 9] does the source give for `CC1(C)C2CCC1(CS(=O)(=O)NCCCNCCCCNCCCN)C(=O)C2` (stereo not shown) here?
**A.** > 10 µM

**Q.** Which Ki [1, 9] does the source give for `NCCCCNS(=O)(=O)c1ccc2ccccc2c1` here?
**A.** 5 µM

**Q.** For `NCCCCN(CCCN)CCCNC(=O)CCCc1ccc(N(CCCl)CCCl)cc1` [chlorambucil-spermidine conjugate], which “fold increase in cytotoxicity compared to chlorambucil alone” value (cancer cells) is on record?
**A.** ≤ 225 fold

**Q.** With `NCCCNCCCCNCCCNC(=O)CCCCCNS(=O)(=O)c1ccc2oc3ccccc3c2c1` [Compound 6] as the compound, how does the R [3] read?
**A.** 220

**Q.** With `CC1(C)C2CCC1(CS(=O)(=O)NCCCCN)C(=O)C2` (stereo not shown) as the compound, how does the Ki [1, 9] read?
**A.** > 30 µM

**Q.** For `NCCCNCCCCNCCCNC(=O)CCCCCNS(=O)(=O)c1ccc(CNC(=O)c2ccc(Cl)cc2)s1` [Compound 5, N^1-[(N^6–5-(4-chlorobenzamidomethyl)-thiophene-2-sulfonyl)-6-aminocaproyl]spermine], which R [3] is on record?
**A.** 210

**Q.** For `NCCCNCCCCNCCCNS(=O)(=O)c1ccc2ccc3cccc4ccc1c2c34` [Compound 15, N^1-(1-pyrenylsulfonyl)spermine], which Ki [1, 8] is on record?
**A.** 0.091 µM

**Q.** Which results are given for `CN(C)c1cccc2c(S(=O)(=O)NCCCCCC(=O)NCCCNCCCCNCCCN)cccc12` [Compound 4, N^1-[(N^6-dansyl)-6-aminocaproyl]spermine]?
**A.** cell growth reduced ([3]; DACS plus ODC inhibitor in the presence of polyamines, by day 3): 69%; IC50 ([3]; Homo sapiens, MDA-MB-231, with ODC inhibitor, 1.0 μM supplemented polyamines, read-out: IC50 for growth in combination with an ODC inhibitor): 600 nM; concentration at which the compound alone becomes growth inhibitory ([3]; alone, without ODC inhibitor): 300 µM; prevention of rescue from ODC inhibition by natural polyamines ([3]; putrescine, spermidine, N1-acetylspermine and N1-acetylspermidine): prevents; R [3]: 400; inhibition of SSAT enzymatic activity [4]: inhibited spermidine/spermine acetyltransferase (SSAT) in a dose-related manner; effectiveness against tumor cell lines in vitro [5]: effective against all these tumor cell lines in vitro; Ki ([6]; putrescine uptake, read-out: Ki, putrescine uptake): 5.4 nM; Ki ([6]; spermidine uptake, read-out: Ki, spermidine uptake): 8 nM

**Q.** Which results are given for `NCCC[C@](N)(C(=O)O)C(F)F` [DFMO, α-difluoromethylornithine]?
**A.** survival ([7]; DFMO mice transplanted with PAT-deficient L1210 cells): > 60 days; time to death ([7]; mice with wild-type L1210 cells (intact PAT), treated with DFMO): 12 days; reduction in neoplastic vessel count (neoplastic vessels): 50%

**Q.** Which Ki [1, 9] does the source give for `NCCCCNS(=O)(=O)c1cccc2ccccc12` here?
**A.** > 30 µM
